Data published in US9504674B2, “TrkB agonists and methods of use” (EMORY UNIVERSITY, priority 2010, dated 2016).

Assays:
[1] = tested on: Akt and MAPK; test: Downstream p-Akt / p-MAPK signaling in mouse brain after oral administration (immunoblotting, p-Akt ELISA); type: in vivo; conditions: 1 mg/kg oral; for Akt and MAPK activation (TrkB signaling) in mouse brain at 2 h: C57BL/6J mice, p-Akt 473 and p-MAPK immunoblotting
Procedure: The data were from two sets of replicated experiments.
1 mg/kg of various compounds were orally administrated into C57 BL/6J mice and TrkB phosphorylation and its downstream signaling cascades including Akt and MAPK in mouse brain were analyzed by immunoblotting at 2 h.
The brain lysates were prepared and analyzed with p-Akt ELISA kit.
The compounds were orally injected (1 mg/kg) into C57BL/6J mice. The TrkB and its downstream signaling cascades activation at 2 h were examined after drug administration with mouse brain tissues. […] The downstream p-Akt and p-MAPK tightly coupled to p-TrkB signals.

[2] = tested on: active caspase-3; test: Kainic acid (KA)-induced neuronal apoptosis in mice (active caspase-3 immunoblotting); type: in vivo, mouse; conditions: 5 mg/kg oral
Procedure: C57BL/6J mice were orally administrated with 5 mg/kg of 4′-DMA-7,8-DHF and 7,8-DHF; at different time points, the mice were ip injected with 20 mg/kg KA for 2 h. The brain lysates were analyzed by immunoblotting with anti-p-TrkB, antiactive caspase-3 antibodies, respectively.
Male C57BL/6 mice aged of 60 days were orally injected with a single dose of 4′-DMA-7,8-DHF or 7,8-DHF ([…]). KA (20 mg/kg) (Sigma, MO) was i.p. injected. Animals were continually monitored for 2 h for the onset of seizure activity. At 0, 4 and 8 h following TrkB agonist treatment, the animals were sacrificed and the hippocampal section lysates were analyzed by immunoblotting with p-TrkB, active caspase-3 and total TrkB antibodies.
(§1) To quantitatively compare the anti-apoptotic activity by these two TrkB agonists, cortical neurons were pretreated with various concentrations of 4′-DMA-7,8-DHF and 7,8-DHF for 30 min, followed by […] for 16 h. Cell lysates were quantitatively analyzed with an active caspse-3 ELISA. […] To investigate whether these compounds exert any neuroprotective effects in animals, both compounds (5 mg/kg) were orally injected into mice. At 0, 2 h or 6 h, kainic acid (KA)(20 mg/kg) was administered intraperitoneally. At 2 h, mice were sacrificed and hippocampal regions were prepared. […] This kinetic spectrum tightly coupled to the TrkB activation status observed when treated with 7,8-DHF (FIG. 3C, right panel).

[3] = tested on: dentate gyrus progenitor proliferation; test: Neurogenesis assay (BrdU positive cells in dentate gyrus); type: in vivo, mouse; conditions: 5 mg/kg oral for 21 days, BrdU 50 mg/kg i.p., 2 h
Procedure: 4′-Dimethylamino-7,8-dihydroxyflavone and 7,8-dihydroxyflavone promote neurogenesis. Male C57BL/6J mice were orally administrated with 5 mg/kg 4′-DMA-7,8-DHF and 7,8-DHF and vehicle solvent for 21 days and followed by 50 mg/kg BrdU ip injection. In 2 h, the mice were perfused and brain sections were immunostained with anti-BrdU and DAPI. The positive cells in dentate gyms were highlighted by arrow (left panels). Quantitative analysis of the BrdU positive cells in dentate gyms (right panel).
Adult male mice (2-3 months old) were orally injected with Saline, 4′-DMA-7,8-DHF and 7,8-DHF (5 mg/kg) for 21 days. Then Brdu (50 mg/kg) was i.p. injected. In 2 h, the mice were perfused with 4% paraformaldehyde. Immunohistochemical staining was performed on formalin-fixed paraffin-embedded sections. Sections from brain were cut, deparaffinized in xylene and rehydrated in graded alcohols. The slides were boiled in 10 mM citric acid (pH 6.0) for 10 min followed by an incubation in 2 N HCl for 10 min in room temperature. The slides were then permeabilized and blocked with 1% BSA in 0.2% PBST. The incorporated BrdU were stained using anti-BrdU-FITC (Abcam, USA) at 4° C. for 16 hr. […] The slides were finally mounted with AquaMount (Lerner Laboratories, USA) containing 0.01% 1,4-diazobicyclo(2,2,2)octane and examined under a fluorescence microscope. […]

[4] = molecular target: T1, TrkB F616A (Mus musculus, UniProt P15209, F616A); test: Forced swim test in TrkB F616A knockin mice with or without 1NMPP1; type: in vivo; conditions: drugs administrated for 5 days; for immobility time in forced swim test, TrkB F616A knockin mice, after 1NMPP1 treatment: 1NMPP1 (25 μM) in drinking water; for immobility time in forced swim test, TrkB F616A knockin mice, saline group: regular drinking water
T1 construct: from tissue; host or cells: TrkB F616A knock-in mice (brain; whole animal in the forced swim test)
Procedure: Male TrkB knockin mice were given the regular drinking water or 1NMPP1 (25 μM) containing drinking water one day before we started to inject the drugs and sustained throughout the whole experiment. The indicated control (saline) and drugs were administrated for 5 days. […] None of the drugs produced a significant change in 1NMPP1 treated TrkB KI mice (n=6 to 7 mice) as compared to control.
TrkB F616A knockin mice were used to assess whether the behavior responses by 7,8-DHF and its derivative is mediated by TrkB receptor. Transgenic mice were subjected to saline or 1NMPP1 pretreatment, respectively.

[5] = tested on: active caspase-3; test: Active caspase-3 ELISA in glutamate-treated cortical neurons; type: cell-based, rat; conditions: 30 min pretreatment, then glutamate 16 h; for caspase-3 activation after glutamate: 50 nM or higher
Procedure: 4′-Dimethylamino-7,8-dihydroxyflavone prevents neurons from apoptosis in a TrkB-dependent manner. Cortical neurons were prepared from E16 rat embryonic. The neurons were pretreated with different doses of compounds as indicated for 30 min, followed by 50 μM glutamate for 16 h. The cell lysates were analyzed by active caspase-3 ELISA.
as §1

T1 sequence (P15209 32-821 F616A): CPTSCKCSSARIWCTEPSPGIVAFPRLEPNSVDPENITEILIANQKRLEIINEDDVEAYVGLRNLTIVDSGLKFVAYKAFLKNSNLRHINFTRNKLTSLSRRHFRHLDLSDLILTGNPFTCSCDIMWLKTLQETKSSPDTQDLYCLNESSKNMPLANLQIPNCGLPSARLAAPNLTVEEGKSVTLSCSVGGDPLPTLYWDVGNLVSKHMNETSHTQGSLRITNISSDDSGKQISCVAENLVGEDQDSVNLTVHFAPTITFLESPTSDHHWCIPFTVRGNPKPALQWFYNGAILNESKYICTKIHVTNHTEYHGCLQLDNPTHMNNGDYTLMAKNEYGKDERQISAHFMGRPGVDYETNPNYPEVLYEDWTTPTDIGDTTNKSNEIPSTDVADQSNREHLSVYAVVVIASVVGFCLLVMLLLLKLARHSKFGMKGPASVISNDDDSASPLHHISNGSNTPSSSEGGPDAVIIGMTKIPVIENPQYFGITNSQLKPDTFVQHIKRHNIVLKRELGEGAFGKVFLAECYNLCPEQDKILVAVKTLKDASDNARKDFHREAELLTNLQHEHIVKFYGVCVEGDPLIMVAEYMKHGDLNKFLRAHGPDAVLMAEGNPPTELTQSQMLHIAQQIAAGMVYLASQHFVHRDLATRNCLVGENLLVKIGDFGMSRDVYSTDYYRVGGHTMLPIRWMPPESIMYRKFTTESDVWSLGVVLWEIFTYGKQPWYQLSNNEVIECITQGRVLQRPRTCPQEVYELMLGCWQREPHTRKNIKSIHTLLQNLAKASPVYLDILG

Structure (SMILES)	Akt and MAPK activation (TrkB signaling) in mouse brain at 2 h [1]	KA-induced neuronal apoptosis over time after dosing ([2]; KA 20 mg/kg i.p. at 0, 2 h or 6 h, hippocampal lysates)	neurogenesis (BrdU) compared to vehicle control [3]	immobility time in forced swim test, TrkB F616A knockin mice, after 1NMPP1 treatment [4]	immobility time in forced swim test, TrkB F616A knockin mice, saline group [4]	inhibition of caspase-3 activation after glutamate ([5]; 10 nM)	caspase-3 activation after glutamate [5]	KA-induced caspase-3 activation at 4 h ([2]; KA 20 mg/kg i.p., 4 h)	active caspase-3 at 8 h ([2]; KA 20 mg/kg i.p., 8 h)	Akt activation in mouse brain (p-Akt ELISA), compared with compound i ([1]; brain lysates, time course)
CN(C)c1ccc(-c2cc(=O)c3ccc(O)c(O)c3o2)cc1 [4′-DMA-7,8-DHF, 4′-dimethylamino-7,8-dihydroxyflavone]	potently activated TrkB signaling in mouse brain	gradually decreased over time	significantly increased neurogenesis	neither 4′-DMA-7,8-DHF nor 7,8-DHF had any significant effect on the immobility time	substantially reduced the immobility time	more robust inhibitory effect than 7,8-DHF	substantially blocked caspase-3 activation	–	–	–
O=c1cc(-c2ccccc2)oc2c(O)c(O)ccc12 [7,8-DHF, 7,8-dihydroxyflavone, reference compound]	–	–	significantly increased neurogenesis	neither 4′-DMA-7,8-DHF nor 7,8-DHF had any significant effect on the immobility time	substantially reduced the immobility time	–	substantially blocked caspase-3 activation	reduced	slightly increased	–
CN(C)c1ccc(-c2cc(=O)c3ccc4nc[nH]c4c3o2)cc1 [compound m, 8-(4-(dimethylamino)phenyl)chromeno[7,8-d]imidazol-6(1H)-one]	potently activated TrkB signaling in mouse brain	–	–	–	–	–	–	–	–	more robust and sustained Akt activation than compound i
